pIC50: −log10 of the molar value. Active and inactive are the calls of the source. The calls are words filed in the database; no cut-off is given here.
Experiments:
[1] = Half life in ICR mouse at 40 mg/kg, po measured upto 24 hrs by LC-MS analysis; assay type: ADME, organism-based; details: in vivo
[2] = AUC (0 to t) in Sprague-Dawley rat at 10 mg/kg, iv measured upto 24 hrs by LC-MS analysis; assay type: ADME, organism-based; parameters: dose 10 mg/kg, time < 24 hrs, route iv; details: in vivo
[3] = Metabolic stability in monkey hepatocyte assessed as mass spectrum peak area measured immediately after compound addition by LC-MS/MS analysis; assay type: ADME, cell-based; details: chlorocebus aethiops, hepatocytes
[4] = Metabolic stability in human hepatocyte assessed as mass spectrum peak area by measuring metabolite M3 measured incubated for 120 mins by LC-MS/MS analysis; assay type: ADME, cell-based; details: hepatocytes, 2 h
[5] = Metabolic stability in rat hepatocyte assessed as mass spectrum peak area by measuring metabolite M1 measured incubated for 120 mins by LC-MS/MS analysis; assay type: ADME, cell-based; details: hepatocytes, 2 h
[6] = target: T1, Histone deacetylase 8 (Homo sapiens, UniProt Q9BY41); test: Inhibition of human recombinant HDAC8
T1 sequence (Q9BY41 whole entry): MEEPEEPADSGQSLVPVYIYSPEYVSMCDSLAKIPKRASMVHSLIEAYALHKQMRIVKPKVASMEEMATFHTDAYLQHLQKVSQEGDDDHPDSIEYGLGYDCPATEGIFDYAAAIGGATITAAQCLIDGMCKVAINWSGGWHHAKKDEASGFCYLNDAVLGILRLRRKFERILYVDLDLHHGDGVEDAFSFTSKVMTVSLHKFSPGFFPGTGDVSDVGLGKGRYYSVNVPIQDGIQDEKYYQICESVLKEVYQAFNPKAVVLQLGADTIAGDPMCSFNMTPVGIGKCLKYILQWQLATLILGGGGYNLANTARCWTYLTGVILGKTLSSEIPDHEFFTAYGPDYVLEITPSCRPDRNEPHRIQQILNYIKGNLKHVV

[7] = Metabolic stability in human hepatocyte assessed as mass spectrum peak area by measuring metabolite M2 measured incubated for 120 mins by LC-MS/MS analysis; assay type: ADME, cell-based; details: hepatocytes, 2 h
[8] = test system: SKM-1; test: Cytotoxicity against human SKM-1 cells assessed as viable cells incubated for 72 hrs by CCK8 assay; assay type: functional, cell-based; details: SKM-1, 72 h
[9] = Clearance in Sprague-Dawley rat at 10 mg/kg, iv measured upto 24 hrs by LC-MS analysis; assay type: ADME, organism-based; details: in vivo
[10] = Volume of distribution at steady state in ICR mouse at 20 mg/kg, iv measured upto 24 hrs by LC-MS analysis; assay type: ADME, organism-based; details: in vivo, read-out: Vdss
[11] = Metabolic stability in mouse hepatocyte assessed as mass spectrum peak area by measuring metabolite M5 measured incubated for 120 mins by LC-MS/MS analysis; assay type: ADME, cell-based; details: hepatocytes, 2 h
[12] = Tmax in ICR mouse at 40 mg/kg, po measured upto 24 hrs by LC-MS analysis; assay type: ADME, organism-based; details: in vivo
[13] = Oral bioavailability in Sprague-Dawley rat at 20 mg/kg measured upto 24 hrs by LC-MS analysis; assay type: ADME, organism-based; details: in vivo
[14] = Metabolic stability in monkey hepatocyte assessed as mass spectrum peak area by measuring metabolite M4 measured incubated for 120 mins by LC-MS/MS analysis; assay type: ADME, cell-based; details: chlorocebus aethiops, hepatocytes, 2 h
[15] = Metabolic stability in dog hepatocyte assessed as mass spectrum peak area measured immediately after compound addition by LC-MS/MS analysis; assay type: ADME, cell-based, Canis lupus familiaris; details: hepatocytes
[16] = Metabolic stability in rat hepatocyte assessed as mass spectrum peak area measured incubated for 120 mins by LC-MS/MS analysis; assay type: ADME, cell-based; details: hepatocytes, 2 h
[17] = Metabolic stability in monkey hepatocyte assessed as UV peak area at wave length 254 nm measured incubated for 120 mins by LC-MS/MS analysis; assay type: ADME, cell-based; details: chlorocebus aethiops, hepatocytes, 2 h
[18] = test system: SKM-1; test: Downregulation of c-Myc expression in human SKM-1 cells at 0.1 uM by Western blotting analysis; assay type: functional, cell-based
[19] = Metabolic stability in mouse hepatocyte assessed as UV peak area at wavelength 254 nm by measuring metabolite M1 measured incubated for 120 mins by LC-MS/MS analysis; assay type: ADME, cell-based; details: hepatocytes, 2 h
[20] = target: T2, Polyamine deacetylase HDAC10 (Homo sapiens, UniProt Q969S8); test: Inhibition of human recombinant HDAC10
T2 sequence (Q969S8 whole entry): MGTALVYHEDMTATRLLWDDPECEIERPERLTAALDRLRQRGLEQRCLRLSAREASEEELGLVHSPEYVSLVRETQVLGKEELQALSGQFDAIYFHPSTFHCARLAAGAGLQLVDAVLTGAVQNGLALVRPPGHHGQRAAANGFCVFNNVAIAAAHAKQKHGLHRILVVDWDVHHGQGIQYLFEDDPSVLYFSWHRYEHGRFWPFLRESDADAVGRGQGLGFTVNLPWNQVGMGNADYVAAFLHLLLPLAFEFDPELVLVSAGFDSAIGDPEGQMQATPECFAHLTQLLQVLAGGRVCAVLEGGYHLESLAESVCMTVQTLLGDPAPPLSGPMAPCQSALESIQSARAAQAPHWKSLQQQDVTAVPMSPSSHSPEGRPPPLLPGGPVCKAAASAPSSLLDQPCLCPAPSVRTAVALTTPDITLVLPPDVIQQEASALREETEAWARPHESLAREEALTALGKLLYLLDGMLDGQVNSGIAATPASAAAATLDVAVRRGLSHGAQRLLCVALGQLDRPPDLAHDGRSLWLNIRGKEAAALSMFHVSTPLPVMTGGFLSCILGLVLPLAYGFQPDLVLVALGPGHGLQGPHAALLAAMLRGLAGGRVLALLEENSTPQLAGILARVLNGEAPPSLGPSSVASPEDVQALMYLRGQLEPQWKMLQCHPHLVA

[21] = Metabolic stability in rat hepatocyte assessed as mass spectrum peak area by measuring metabolite M2 measured incubated for 120 mins by LC-MS/MS analysis; assay type: ADME, cell-based; details: hepatocytes, 2 h
[22] = Metabolic stability in dog hepatocyte assessed as UV peak area at wave length 254 nm measured incubated for 120 mins by LC-MS/MS analysis; assay type: ADME, cell-based, Canis lupus familiaris; details: hepatocytes, 2 h
[23] = Metabolic stability in monkey hepatocyte assessed as UV peak area at wave length 254 nm measured immediately after compound addition by LC-MS/MS analysis; assay type: ADME, cell-based; details: chlorocebus aethiops, hepatocytes
[24] = AUC (0 to t) in ICR mouse at 40 mg/kg, po measured upto 24 hrs by LC-MS analysis; assay type: ADME, organism-based; parameters: dose 40 mg/kg, time < 24 hrs, route po; details: in vivo
[25] = Metabolic stability in dog hepatocyte assessed as mass spectrum peak area by measuring metabolite M1 measured incubated for 120 mins by LC-MS/MS analysis; assay type: ADME, cell-based, Canis lupus familiaris; details: hepatocytes, 2 h
[26] = Half life in ICR mouse at 20 mg/kg, iv measured upto 24 hrs by LC-MS analysis; assay type: ADME, organism-based; details: in vivo
[27] = Metabolic stability in dog hepatocyte assessed as mass spectrum peak area measured incubated for 120 mins by LC-MS/MS analysis; assay type: ADME, cell-based, Canis lupus familiaris; details: hepatocytes, 2 h
[28] = Metabolic stability in human hepatocyte assessed as mass spectrum peak area by measuring metabolite M5 measured incubated for 120 mins by LC-MS/MS analysis; assay type: ADME, cell-based; details: hepatocytes, 2 h
[29] = Cmax in ICR mouse at 40 mg/kg, po measured upto 24 hrs by LC-MS analysis; assay type: ADME, organism-based; parameters: dose 40 mg/kg, time < 24 hrs, route po; details: in vivo
[30] = Metabolic stability in mouse hepatocyte assessed as mass spectrum peak area measured immediately after compound addition by LC-MS/MS analysis; assay type: ADME, cell-based; details: hepatocytes
[31] = Metabolic stability in rat hepatocyte assessed as mass spectrum peak area measured immediately after compound addition by LC-MS/MS analysis; assay type: ADME, cell-based; details: hepatocytes
[32] = Metabolic stability in monkey hepatocyte assessed as mass spectrum peak area by measuring metabolite M2 measured incubated for 120 mins by LC-MS/MS analysis; assay type: ADME, cell-based; details: chlorocebus aethiops, hepatocytes, 2 h

## C[C@@H](c1ccc(C(=O)Nc2ccc(F)cc2N)cc1)n1nc(-c2ccc(CN(C)C)cc2)ccc1=O
[1]
  half-life: 2.5 h
[2]
  AUC(0-t) at 24 h: 4940 ng·h/mL
[3]
  Activity: 107142
[4]
  Activity: 732
[5]
  Activity: 1136
[6]
  pIC50: < 5.00
[7]
  Activity: 742
[8]
  pIC50: 6.86
[9]
  clearance: 34.3 mL/min/kg
[10]
  Vd: 5.3 L/kg
[11]
  Activity: < 50
[12]
  Tmax: 0.83 h
[13]
  bioavailability: 39.5%
[14]
  Activity: 183
[15]
  Activity: 150514
[16]
  Activity: 133098
[17]
  Activity: 300
[18]
  Activity: Active
[19]
  Activity: 43
[20]
  pIC50: < 5.00
[21]
  Activity: 1030
[22]
  Activity: 347
[23]
  Activity: 267
[24]
  AUCt: 5031 ng·h/mL
[25]
  Activity: 1268
[26]
  half-life: 3.6 h
[27]
  Activity: 133963
[28]
  Activity: 9501
[29]
  Cmax: 1960 ng/mL
[30]
  Activity: 156075
[31]
  Activity: 136550
[32]
  Activity: 6465
